From patent publication US7943296B2, “Methods of screening using a natriuretic peptide receptor” (Oregon Health & Science University, priority 2005, dated 2011)
Positions count from the first letter of the chain named.

Assays:
α-SMA promoter [1] = test: TGF-β1-induced α-SMA-luciferase reporter in CFs transfected with pcDNA3-sNRF or control vector; assay type: cell-based; settings: for inhibitory effect on sNRF action (loss of NP inhibition of α-SMA-luciferase): sNRF-transfected CFs, TGF-β1 + ANP, 24 hours
Method: TGF-β1 signaling is required for angiotensin effects in the heart, and NPs oppose TGF-β1 effects in CFs. […] CFs were transiently transfected with the α-SMA-luciferase vector and pcDNA3 control vector or pcDNA3-sNRF, then treated for 24 hours with TGF-β1, ANP, and the angiotensin-converting enzyme inhibitor captopril (CAP) or the angiotensin receptor-1 blocker losartan (LOS).

PKG [2] = target: T1, PKG (Rattus norvegicus, UniProt A9LNM8); test: Co-immunoprecipitation of PKG with FLAG-tagged NPRA fragments in primary CFs; assay type: binding; settings: 5'-FLAG-tagged fragment in transfected CFs, anti-FLAG M2 affinity gel
T1 construct: endogenous in cells; host or cells: primary neonatal rat cardiac fibroblasts transfected with 5'-FLAG sNRF fragments
T1 sequence (A9LNM8 1-671): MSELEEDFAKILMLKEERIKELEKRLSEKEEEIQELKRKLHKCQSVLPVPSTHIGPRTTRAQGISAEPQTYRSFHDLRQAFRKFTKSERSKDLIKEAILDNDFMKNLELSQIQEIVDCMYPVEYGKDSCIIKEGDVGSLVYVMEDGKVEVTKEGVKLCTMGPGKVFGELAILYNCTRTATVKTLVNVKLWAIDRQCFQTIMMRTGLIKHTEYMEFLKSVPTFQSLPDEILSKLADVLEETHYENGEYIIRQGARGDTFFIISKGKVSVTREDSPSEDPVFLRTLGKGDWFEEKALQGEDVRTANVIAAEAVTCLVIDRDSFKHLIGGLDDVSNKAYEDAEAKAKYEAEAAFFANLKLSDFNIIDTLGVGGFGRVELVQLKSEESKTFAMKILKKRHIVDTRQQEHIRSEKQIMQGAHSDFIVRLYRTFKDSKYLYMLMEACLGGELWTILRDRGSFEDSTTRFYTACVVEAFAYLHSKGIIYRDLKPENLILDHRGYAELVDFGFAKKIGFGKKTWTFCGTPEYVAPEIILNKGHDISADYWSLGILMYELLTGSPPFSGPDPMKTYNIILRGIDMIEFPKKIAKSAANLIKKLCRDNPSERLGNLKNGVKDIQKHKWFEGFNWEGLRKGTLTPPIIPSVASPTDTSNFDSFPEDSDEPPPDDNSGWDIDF
Method: Neonatal rat ventricular fibroblasts (CFs) were cultured from 1 to 2-day-old Harlan Sprague-Dawley rats as described previously (Simpson, Circulation Res. 56:884-94, 1985). Briefly, ventricles were dissected free from atria and quartered. Following dissociation in ADS buffer containing 1.5 mg/ml trypsin (Gibco #27250-018) and 1% DNase solution (2 mg/ml DNase type II, 150 mM NaCl) with serum neutralization the collected cells were pre-incubated in media at 37° C. for 90 minutes to allow CF attachment to the bottom of culture dishes. CFs were incubated in plating media for 48 hours, divided into 6-well culture plates or dual-well chamberslides, and grown to 50% confluency in DMEM with 10% FBS prior to use.
CFs were transiently transfected with nucleic acid molecules encoding sNRF^(806-1061), sNRF^(806-900), or sNRF^(806-860) using routine methods. Briefly, PCR-generated, 5′-FLAG epitope-tagged sNRFs were subcloned into the BamHI and EcoRI sites of pCDNA3 (Invitrogen) and sequenced to verify construction accuracy. […]
The ability of the NPRA fragments to immunoprecipitate PKG was determined in the primary CF cells transfected with the 5′-FLAG epitope-tagged NPRA fragments as follows. […] Bound antibody was detected with chemiluminescent substrate (Western Lightning ECL, PerkinElmer Life Sciences).

PKG [3] = target: T2, PKG (Homo sapiens, UniProt Q13976); test: Immunofluorescence of NP-induced PKG membrane translocation in HEK-NPRA cells; assay type: cell-based; settings: fragment expressed in HEK-NPRA cells; ANP 100 nM 15 minutes
T2 construct: endogenous in cells; host or cells: HEK293 stably over-expressing FLAG-NPRA (HEK-NPRA)
T2 sequence (Q13976 1-671): T1 sequence (A9LNM8 1-671) with D227E, K265T, S267N, E291G, E499K, S586N, S656N
Method: HEK-NPRA cells were transiently transfected with insertless pcDNA3 plasmid vector or pcDNA3-sNRF^(806-1061). All slide wells were treated with atrial natriuretic peptide (ANP) (100 nM; Sigma-Aldrich #A1663) for 15 minutes. Cells were decorated with monoclonal flag antibody specific for FLAG-NPRA (red) and polyclonal PKG antibody (green). Overlapping regions of PKG and NPRA appeared yellow-orange. PKG staining was absent when anti-PKG antibody was pre-adsorbed with recombinant PKG protein (Calbiochem).

[4] = tested on: cardiac fibroblasts (CFs); test: bFGF-induced α-SMA protein expression in CFs (Western blot); assay type: cell-based, rat; settings: cells with insertless vector; 10 ng/ml FGF 48 hours; 100 nM ANP
Method: (§1) NP's ability to inhibit growth factor-induced CF differentiation into myofibroblasts was determined as follows. CFs were transiently transfected with insertless pcDNA3 vector or pcDNA3 encoding sNRF^(806-900) (see Example 7). The transfected CFs were then treated for 48 hours with 10 ng/ml basic fibroblast growth factor (FGF; Sigma-Aldrich #F0291) in the presence or absence of 100 nM ANP. Alpha-smooth muscle actin (α-SMA) protein expression, the principal marker of CF differentiation, was assessed by Western blotting and immunofluorescence microscopy. Vimentin staining was used as a loading control because it is expressed equally in fibroblasts and transdifferentiated myofibroblasts.

[5] = tested on: cardiac fibroblasts (CFs); test: Vimentin localisation in CFs by immunofluorescence microscopy; assay type: cell-based, rat; settings: in the presence of ANP
Method: as §1
For the immunofluorescence microscopy, slide wells were treated as described in Example 7 and incubated with anti-α-SMA and anti-vimentin antibody as well as phalloidin to stain for actin. Briefly, cells were rinsed twice with phosphate-buffered saline (PBS) and fixed with 3.7% formaldehyde in PBS for 10 minutes. After fixation, cells were rinsed with PBS and permeabilized with 0.3% Triton X-100 in PBS for 10 minutes and blocked for 1 hour in 1% horse serum, 0.2% bovine serum albumin in PBS. Cells were then incubated with primary α-SMA antibody (ABCAM ab7817) and primary vimentin antibody (ABCAM ab7783) diluted in blocking solution for 1 hour and washed three times with blocking solution for 5 minutes. […]

α-SMA promoter [6] = test: α-SMA-luciferase reporter in neonatal rat CFs with daily TGF-β1, model of NP resistance; assay type: cell-based
Method: Neonatal rat CFs were transfected with an α-SMA-luciferase reporter construct driven by TGF-β1 induction of the α-SMA promoter. After 24 hours, cells were treated daily with […] TGF-β1 for up to 4 days. On each successive day, some of the cells were treated with NP (ANP, 100 nM), and luciferase activity measured.

With `CCCCc1nc(Cl)c(CO)n1Cc1ccc(-c2ccccc2-c2nn[nH]n2)cc1` [losartan] the “NP-inhibition of TGF-β1 induction of α-SMA-luciferase” value (α-SMA promoter [1]; non-sNRF transfected cells) was “blocks NP-inhibition of TGF-β1 induction of α-SMA-luciferase” and the “inhibitory effect on sNRF action (loss of NP inhibition of α-SMA-luciferase)” value (α-SMA promoter [1]) was “no significant inhibitory effect”.
For `C[C@H](CS)C(=O)N1CCC[C@H]1C(=O)O` [captopril], the “inhibitory effect on sNRF action (loss of NP inhibition of α-SMA-luciferase)” value (α-SMA promoter [1]) was “no significant inhibitory effect”.
For “sNRF^(806-1061): intracellular NPRA fragment, residues 806-1061, with hinge domain and C-terminal guanylyl cyclase domain; expressed FLAG-tagged”, the “co-immunoprecipitation of PKG” value (PKG [2]) was “co-immunoprecipitated PKG” and the “translocation of cytosolic PKG to the plasma membrane” value (PKG [3]) was “inhibited translocation of cytosolic PKG to the plasma membrane”.
With `CC[C@H](C)[C@@H]1NC(=O)[C@H](CCCNC(=N)N)NC(=O)[C@H](CC(=O)O)NC(=O)[C@H](CCSC)NC(=O)[C@H](CCCNC(=N)N)NC(=O)CNC(=O)CNC(=O)[C@H](Cc2ccccc2)NC(=O)[C@@H](NC(=O)[C@H](CO)NC(=O)[C@H](CO)NC(=O)[C@H](CCCNC(=N)N)NC(=O)[C@H](CCCNC(=N)N)NC(=O)[C@H](CC(C)C)NC(=O)[C@@H](N)CO)CSSC[C@@H](C(=O)N[C@@H](CC(N)=O)C(=O)N[C@@H](CO)C(=O)N[C@@H](Cc2ccccc2)C(=O)N[C@@H](CCCNC(=N)N)C(=O)N[C@@H](Cc2ccc(O)cc2)C(=O)O)NC(=O)CNC(=O)[C@H](CC(C)C)NC(=O)CNC(=O)[C@H](CO)NC(=O)[C@H](CCC(N)=O)NC(=O)[C@H](C)NC(=O)CNC1=O` [ANP, atrial natriuretic peptide] the “bFGF-induced α-SMA protein expression” value [4] was “inhibited bFGF-induced α-SMA protein expression”, the “nuclear to cytosolic translocation of vimentin” value [5] was “nuclear to cytosolic translocation of vimentin was observed” and the “expression of the luciferase reporter construct driven by TGF-β1 induction of the α-SMA promoter” value (α-SMA promoter [6]; NP (ANP, 100 nM) 24 hours, 100 nM TGF-β1) was “almost completely inhibited”. The “NP's inhibitory effect on TGF-β1-induced α-SMA-luciferase” value (α-SMA promoter [6]; progressively longer periods of NP treatment, up to 4 days) was “steady decline in NP's inhibitory effects” and the “TGF-β1-induced α-SMA-luciferase expression” value (α-SMA promoter [1]; cells that do not over-express sNRF) was “inhibits TGF-β1-induced α-SMA-luciferase expression”.
